Results on 25 molecules are retold here after patent US4160097A, “1-(2-Phenylureylene)imidazoles” (Westwind Pharmaceuticals, Inc., priority 1977, dated 1979).

For orientation: ED50 means the dose that gives a 50% effect, or the effect in half of the subjects.

The test system of one test is Trichophyton ajelloi. The test is described as follows: Antifungal activity, agar dilution method. Type of test: cell-based. Particulars: Arthroderma uncinatum, T. ajelloi, read-out: Parts Per Million Inhibitions of T. ajelloi. As to the method: (§1) various compounds of this invention display antifungal and anti-yeast activity.
(§2) In Table IX below are listed the antifungal activity of a number of compounds encompassed in the present invention. These were determined by the agar dilution method as described in Chapters 2 and 3 of Methods in Microbiology, Vol. 7B, edited by J. R. Norris and D. W. Ribbons, Academic Press, New York, 1972.
(In agar dilution the substance is mixed into plates at graded concentrations.)

The next test deals with Candida tropicalis. Nature of the test: Antifungal activity, agar dilution method. Type of test: cell-based. Particulars: C. tropicalis, read-out: Parts Per Million Inhibitions of C. tropicalis. As to the method:
as §1, §2

The next test has as its system Trichophyton rubrum. Nature of the test: Antifungal activity, agar dilution method. The conditions noted are these: T. rubrum, read-out: Parts Per Million Inhibitions of T. rubrum. Type of test: cell-based, Trichophyton rubrum (ATCC No. 10218 and 14001). As to the method:
as §1, §2

The next test relates to Candida albicans. Nature of the test: Antifungal activity, agar dilution method. Type of test: cell-based, Candida albicans (ATCC No. 10231). The conditions noted are these: C. albicans, read-out: Parts Per Million Inhibitions of C. albicans. As to the method: as §1, §2
Test [1] concerns Trichophyton mentagrophytes. Nature of the test: Antifungal activity, agar dilution method. Type of test: cell-based, Trichophyton mentagrophytes (ATCC No. 8757 and 9129). The conditions noted are these: T. mentagrophytes, read-out: Parts Per Million Inhibitions of T. mentagrophytes. Here is the method: as §1, §2
Test [2] deals with humeral or antibody response. Nature of the test: hemolysin test in mice. Type of test: in vivo. Particulars: Mus musculus, sc, dose reducing antibody activity by 50% vs control, read-out: HL(ED50).
Test [3] relates to carrageenan rat paw edema. The test is described as follows: Rat Paw Edema Assay, Local Administration. The conditions noted are these: read-out: % Difference from Control; for change in vivo at 100 mg/kg: local administration; for change in vivo at 0.001 mg: 1 μg; for change in vivo at 0.001 mg / change in vivo at 0.01 mg / change in vivo at 0.1 mg: injected directly into paw; for change in vivo at 0.01 mg: 10 μg; for change in vivo at 0.1 mg: 100 μg. Type of test: in vivo. Here is the method:
(§3) The anti-inflammatory activity of representative compounds of this invention was determined by the rat paw edema assay both by local administration (Table XI below) and by oral dosing (Table XII below). For the oral dosing, the procedure of C. A. Winter, E. A. Risley and G. W. Nuss, Proc. Soc. Exp. Biol. Med. III, 544 (1962) was employed with measurement taken four hours after the drug was administered. The local administration tests were carried out similarly except the irritant (carrageenan) and the test compound were injected simultaneously at time zero.
(§4) Tables XI and XII report the anti-inflammatory activity of the compounds tested as % difference in the edema or swelling as compared with the control. These Tables also give the response in many instances of more than one dose level of the same drug.

For test [4], the system named is cell-mediated immune response to the antigen, Mycobacterium tuberculosis H37Ra. Nature of the test: delayed hypersensitivity test. Type of test: in vivo, mouse. Particulars: Mus musculus, sc, read-out: D.H.S. (ED60). As to the method:
The immunosuppressant activities of the compounds of this invention were determined via the hemolysin test in mice and by the delayed hypersensitivity test. The hemolysin test used is that described in Methods in Immunology, edited by D. H. Campbell et al, W. A. Benjamin, New York 1963 pages 172-175, and measures humeral or antibody response. The delayed hypersensitivity test measures the effect of a test compound on the ability of a subject mouse to mount a cell-mediated immune response to the antigen, Mycobacterium tuberculosis H37Ra. The mouse is sensitized to the antigen by subcutaneous administration in the base of the tail. The development of the delayed hypersensitivity response may be measured at any time beginning six days after sensitization but is usually done on the ninth day as follows: The right hind paw is injected with purified protein derivative (tuberculin) while the left hind paw (control) receives physiological saline. Both paw volumes are measured after twenty-four hours and significant increase in the volume of the right hand paw is taken as a measure of an effective delayed hypersensitivity response. All compounds were administered by the subcutaneous route.
The D.H.S. (ED60) mg./kg. s.c. value appearing in column 3 is an expression of the effectiveness of the drug in reducing the edema that accompanies the cell-mediated immune response. It is a measure of the number of milligrams per kilogram of body weight of the drug administered subcutaneously which is required to reduce the edema of the cell-mediated immune response by 60% when compared to the control.

Test [5] has as its system carrageenan rat paw edema. Nature of the test: Rat Paw Edema Assay, Oral Dosing. Type of test: in vivo. The conditions noted are these: 4 h, 100 mg/kg oral, four hours after drug, read-out: % Difference from Control. Here is the method: as §3, §4
The test system of the next test is immune response. Nature of the test: immunosuppressant activity (general statement). Particulars: statement in words. Type of test: in vivo, mice.
The test system of the next test is Aspergillus niger. The test is described as follows: Antifungal activity, agar dilution method. Type of test: cell-based, Aspergillus niger (ATCC No. 16404). Particulars: A. niger, read-out: Parts Per Million Inhibitions of A. niger. Here is the method:
as §1, §2

Where [6] appears, read: mice, dose reducing edema of cell-mediated immune response by 60% vs control.

Each structure is given as a SMILES string. ≈ marks a conversion by molar mass, not a printed value. Read-outs that look alike come from different tables or passages of the source. Bounds are passed on as bounds.

With `c1ccc(Cc2nc3ccccc3n3ccnc23)cc1` [Compound 124], the MIC in the test with Trichophyton ajelloi is 100 µg/mL (≈ 386 µM); with Candida tropicalis, 100 µg/mL (≈ 386 µM); with Trichophyton rubrum, 8 µg/mL (≈ 30.9 µM); with Candida albicans, 100 µg/mL (≈ 386 µM); in test [1], 100 µg/mL (≈ 386 µM).
As for `C1=CCC(c2nc3ccccc3n3ccnc23)CC1` (stereo not shown) [Compound 130], the MIC (in the test with Trichophyton ajelloi; in the test with Candida tropicalis; in the test with Candida albicans; in [1]) was 100 µg/mL (≈ 401 µM) in each case.
On to `Clc1ccc(-c2nc3ccccc3n3ccnc23)cc1` [Compound 140], for which the ED50 in test [2] was 0.26 mg/kg. Moreover, the change in vivo at 100 mg/kg in test [3] is -78%; in [5] it was -35%. Also, the MIC with Trichophyton rubrum is less than 0.5 µg/mL. Further, in test [4] (setting [6]), the ED60 was found to be 1.15 mg/kg.
In the case of `c1ccc(-c2nc3ccccc3n3ccnc23)cc1` [Compound 131, 4-phenylimidazo[1,2-a]quinoxaline, reference compound], the ED50 in [2] worked out at 18 mg/kg. Also, the MIC came out at 2 µg/mL (≈ 8.15 µM) in the test on Trichophyton rubrum and 16 µg/mL (≈ 65.2 µM) in test [1]. Besides, the immunosuppressant activity entry with immune response is reported as “only minor activity”. Also, the ED60 in [4] (setting [6]) came to 81 mg/kg. For the same molecule, the change in vivo at 100 mg/kg in [5] is -52%.
`Cc1nc2ccccc2n2ccnc12` [Compound 110]: the change in vivo at 100 mg/kg was -74% in [3] and -43% in test [5]. In addition, the MIC in the test on Trichophyton rubrum came out at 64 µg/mL (≈ 349 µM); in test [1], 128 µg/mL (≈ 699 µM); in the test on Aspergillus niger, 128 µg/mL (≈ 699 µM). The ED60 in test [4] (setting [6]) came out at 50 mg/kg.
In the case of `c1ccc2c(c1)ncc1nccn12` [Compound 109, imidazo[1,2-a]quinoxaline, reference compound], the ED50 in [2] was greater than 50 mg/kg. For the same molecule, in test [3], the change in vivo at 0.001 mg is -30.8%, the change in vivo at 0.01 mg is -3.9% and the change in vivo at 0.1 mg is 31.6%. The MIC in the test with Trichophyton rubrum was 32 µg/mL (≈ 189 µM). The immunosuppressant activity entry in the test on immune response is reported as “lacks immunosuppressant activity”. Further, in [4] (setting [6]), the ED60 is greater than 50 mg/kg. Moreover, the MIC in [1] amounted to 128 µg/mL (≈ 757 µM). Besides, in test [5], the change in vivo at 100 mg/kg was -17%.
`CCCCCCC(=O)Nc1ccccc1-n1ccnc1` [Compound 7]: the change in vivo at 100 mg/kg is -22% in test [3] and -52% in [5].
Turning to `O=C(Nc1ccccc1-n1ccnc1)c1ccc(-c2ccccc2)cc1` [Compound 40], the MIC (in the test with Trichophyton ajelloi; in the test on Candida tropicalis; in the test with Candida albicans; in test [1]) was 100 µg/mL (≈ 295 µM) each time. Besides, the change in vivo at 100 mg/kg in test [5] was -43%.
As to `O=C(O)c1ccccc1-c1nc2ccccc2n2ccnc12` [Compound 148], in test [3], the change in vivo at 0.001 mg was -32.6%, the change in vivo at 0.01 mg was -53.5%, the change in vivo at 0.1 mg is -14.3% and the change in vivo at 100 mg/kg was -39%. Moreover, in [5], the change in vivo at 100 mg/kg is -52%.
In the case of `c1ccc(OCc2nc3ccccc3n3ccnc23)cc1` [Compound 126], the MIC (in the test on Trichophyton ajelloi; in the test on Trichophyton rubrum; in test [1]) was 100 µg/mL (≈ 363 µM) throughout. Further, the ED50 in [2] was 35 mg/kg. In addition, the ED60 in test [4] (setting [6]) was greater than 50 mg/kg.
With `FC(F)(F)c1nc2ccccc2n2ccnc12` [Compound 122], the change in vivo at 100 mg/kg in [3] and in test [5] was -61% each time. Besides, the MIC in the test on Trichophyton rubrum is 32 µg/mL (≈ 135 µM).
`O=C(Nc1ccccc1-n1ccnc1)c1ccc(Cl)cc1` [Compound 51]: the change in vivo at 100 mg/kg in [3] and in [5] was -57% each time.
Take `Cc1cccc(-c2nc3ccccc3n3ccnc23)c1` [Compound 133]: the MIC in the test on Trichophyton ajelloi stood at 8 µg/mL (≈ 30.9 µM); in the test with Candida tropicalis it was 100 µg/mL (≈ 386 µM); in the test with Trichophyton rubrum it was 8 µg/mL (≈ 30.9 µM); in the test with Candida albicans, 100 µg/mL (≈ 386 µM); in [1], 8 µg/mL (≈ 30.9 µM). In addition, in test [2], the ED50 is 0.75 mg/kg. Also, the ED60 in test [4] (setting [6]) stood at 32 mg/kg. For the same molecule, the change in vivo at 100 mg/kg in test [5] is -17%.
`CCCNc1nc2ccccc2n2ccnc12` [Compound 169]: the MIC (with Trichophyton ajelloi; in the test on Trichophyton rubrum; in test [1]) was 100 µg/mL (≈ 442 µM) each time. The ED50 in [2] was found to be 46 mg/kg. The ED60 in test [4] was greater than 50 mg/kg.
With `Fc1ccccc1-c1nc2ccccc2n2ccnc12` [Compound 173], the MIC (in the test with Trichophyton ajelloi; in the test on Trichophyton rubrum; in [1]) was 100 µg/mL (≈ 380 µM) throughout. Besides, the ED60 in test [4] (setting [6]) turned out to be 40 mg/kg.
Turning to `COc1ccccc1C(=O)Nc1ccccc1-n1ccnc1` [Compound 58], the MIC (in the test on Trichophyton ajelloi; in the test with Trichophyton rubrum; in test [1]) was 100 µg/mL (≈ 341 µM) in each case.
In the case of `O=C(Nc1ccccc1-n1ccnc1)c1ccccc1Cl` [Compound 49], the change in vivo at 100 mg/kg in test [3] and in [5] was -35% throughout.
For `CCCCCc1nc2ccccc2n2ccnc12` [Compound 114], in test [3], the change in vivo at 0.001 mg turned out to be 68.2%, the change in vivo at 0.01 mg is -30% and the change in vivo at 0.1 mg is -132%. Besides, in the test with Trichophyton rubrum, the MIC was found to be 1 µg/mL (≈ 4.18 µM). Moreover, the MIC in [1] turned out to be 16 µg/mL (≈ 66.9 µM). For the same molecule, in test [5], the change in vivo at 100 mg/kg is -61%.
For the molecule `CCCCc1nc2ccccc2n2ccnc12` [Compound 113], the MIC (in the test on Candida tropicalis; with Candida albicans; in [1]) was 100 µg/mL (≈ 444 µM) in each case.
As for `Clc1cccc(Nc2nc3ccccc3n3ccnc23)c1` [Compound 179], the MIC (with Trichophyton ajelloi; in the test on Trichophyton rubrum; in test [1]) was 100 µg/mL (≈ 339 µM) throughout.
As for `Nc1ccc(-c2nc3ccccc3n3ccnc23)cc1` [Compound 153], in the test on Candida tropicalis, the MIC turned out to be 100 µg/mL (≈ 384 µM). For the same molecule, the ED50 in [2] is 1.2 mg/kg. Besides, the ED60 in test [4] (setting [6]) worked out at 5.7 mg/kg.
Take `COc1cccc(-c2nc3ccccc3n3ccnc23)c1` [Compound 159]: the MIC (in the test on Trichophyton ajelloi; in the test on Trichophyton rubrum; in test [1]) was 100 µg/mL (≈ 363 µM) throughout. Moreover, the ED50 in test [2] is 3 mg/kg. In addition, the ED60 in [4] (setting [6]) came out at 27 mg/kg.
Consider `c1ccc2c(c1)nc(C1CCCCC1)c1nccn12` [Compound 129], for which the MIC in the test with Trichophyton ajelloi was 16 µg/mL (≈ 63.7 µM); with Trichophyton rubrum, 8 µg/mL (≈ 31.8 µM); in test [1] it was 16 µg/mL (≈ 63.7 µM). Also, the change in vivo at 100 mg/kg in [5] is -30%.
Consider `CCCC(=O)Oc1ccc(-c2nc3ccccc3n3ccnc23)cc1` [Compound 164], for which the MIC (in the test with Trichophyton ajelloi; in the test with Trichophyton rubrum; in [1]) was 100 µg/mL (≈ 302 µM) throughout.
Consider `Brc1ccccc1-c1nc2ccccc2n2ccnc12` [Compound 145], for which the MIC (with Trichophyton ajelloi; in the test with Trichophyton rubrum; in test [1]) was 100 µg/mL (≈ 308 µM) each time.
